Assay results: ChEMBL document CHEMBL3431459, “Roche carnitine palmitoyltransferase modulator screening data (supplementary data associated with the publication CHEMBL2216752)”
≈ marks a conversion by molar mass, not a printed value.

Tests used:
[1] = biological target: T1, Carnitine O-palmitoyltransferase 2, mitochondrial (Rattus norvegicus, UniProt P18886); assay: (§1) SUPPLEMENTARY: Inhibition of Carnitine palmitoyltransferase 2
T1 sequence (P18886 whole entry): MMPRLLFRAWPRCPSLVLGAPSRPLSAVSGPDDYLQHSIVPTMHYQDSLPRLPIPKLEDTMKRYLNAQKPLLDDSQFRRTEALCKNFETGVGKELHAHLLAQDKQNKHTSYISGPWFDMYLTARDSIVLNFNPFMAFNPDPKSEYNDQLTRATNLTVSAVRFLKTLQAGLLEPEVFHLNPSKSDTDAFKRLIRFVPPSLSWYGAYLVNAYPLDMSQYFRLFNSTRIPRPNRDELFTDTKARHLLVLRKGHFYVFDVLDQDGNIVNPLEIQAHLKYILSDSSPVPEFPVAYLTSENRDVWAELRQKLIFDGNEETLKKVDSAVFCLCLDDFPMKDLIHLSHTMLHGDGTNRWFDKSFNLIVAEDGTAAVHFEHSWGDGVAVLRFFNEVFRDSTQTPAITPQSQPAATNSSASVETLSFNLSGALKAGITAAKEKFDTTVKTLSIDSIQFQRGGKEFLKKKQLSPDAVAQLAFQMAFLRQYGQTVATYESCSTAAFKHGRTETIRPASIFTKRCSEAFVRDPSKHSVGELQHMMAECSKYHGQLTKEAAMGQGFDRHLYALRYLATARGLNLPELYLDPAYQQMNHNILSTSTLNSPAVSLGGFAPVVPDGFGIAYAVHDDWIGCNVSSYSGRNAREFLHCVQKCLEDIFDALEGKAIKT

[2] = biological target: T2, Carnitine O-palmitoyltransferase 2, mitochondrial (Homo sapiens, UniProt P23786); assay: as §1
T2 sequence (P23786 whole entry): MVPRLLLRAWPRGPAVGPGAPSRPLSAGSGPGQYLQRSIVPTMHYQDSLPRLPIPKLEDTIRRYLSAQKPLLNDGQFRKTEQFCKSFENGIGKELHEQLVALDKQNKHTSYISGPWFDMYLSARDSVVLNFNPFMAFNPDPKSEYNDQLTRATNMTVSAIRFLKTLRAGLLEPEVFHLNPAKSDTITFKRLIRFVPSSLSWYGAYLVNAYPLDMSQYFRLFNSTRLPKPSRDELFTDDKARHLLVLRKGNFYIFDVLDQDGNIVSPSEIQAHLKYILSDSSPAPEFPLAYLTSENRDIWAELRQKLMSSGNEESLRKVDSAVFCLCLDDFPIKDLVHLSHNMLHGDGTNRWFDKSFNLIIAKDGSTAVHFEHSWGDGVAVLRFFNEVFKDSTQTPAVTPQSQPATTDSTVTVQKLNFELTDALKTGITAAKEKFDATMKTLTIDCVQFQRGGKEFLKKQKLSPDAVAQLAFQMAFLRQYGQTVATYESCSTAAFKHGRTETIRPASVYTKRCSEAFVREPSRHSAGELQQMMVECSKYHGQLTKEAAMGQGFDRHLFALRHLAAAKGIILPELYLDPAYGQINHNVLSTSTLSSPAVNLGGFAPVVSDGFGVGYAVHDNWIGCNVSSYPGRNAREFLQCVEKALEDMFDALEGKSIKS

[3] = biological target: T3, Carnitine O-palmitoyltransferase 1, liver isoform (Homo sapiens, UniProt P50416); assay: (§2) SUPPLEMENTARY: Inhibition of Carnitine palmitoyltransferase 1, liver isoform
T3 sequence (P50416 whole entry): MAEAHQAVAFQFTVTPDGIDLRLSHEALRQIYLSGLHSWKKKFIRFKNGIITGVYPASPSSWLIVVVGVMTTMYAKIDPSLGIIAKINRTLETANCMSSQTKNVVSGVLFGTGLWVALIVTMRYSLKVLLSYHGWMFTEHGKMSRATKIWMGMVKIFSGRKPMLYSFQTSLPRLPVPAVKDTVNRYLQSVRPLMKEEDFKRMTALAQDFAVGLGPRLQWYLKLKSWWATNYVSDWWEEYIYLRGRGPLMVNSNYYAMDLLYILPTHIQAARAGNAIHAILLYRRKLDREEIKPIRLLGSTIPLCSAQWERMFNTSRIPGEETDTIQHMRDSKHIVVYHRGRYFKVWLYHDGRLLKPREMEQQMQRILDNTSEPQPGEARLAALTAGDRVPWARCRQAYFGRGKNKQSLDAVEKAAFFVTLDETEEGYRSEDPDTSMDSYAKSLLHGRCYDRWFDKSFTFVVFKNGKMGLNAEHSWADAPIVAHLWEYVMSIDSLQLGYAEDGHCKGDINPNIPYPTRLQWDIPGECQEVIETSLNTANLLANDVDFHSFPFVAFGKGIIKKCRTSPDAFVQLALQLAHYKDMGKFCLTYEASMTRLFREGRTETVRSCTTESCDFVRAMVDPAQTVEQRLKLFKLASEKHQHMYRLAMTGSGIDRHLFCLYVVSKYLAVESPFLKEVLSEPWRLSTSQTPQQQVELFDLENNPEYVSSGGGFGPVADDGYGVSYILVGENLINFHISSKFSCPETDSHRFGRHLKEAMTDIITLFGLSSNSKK

[4] = biological target: T4, Carnitine O-palmitoyltransferase 1, liver isoform (Rattus norvegicus, UniProt P32198); assay: as §2
T4 sequence (P32198 whole entry): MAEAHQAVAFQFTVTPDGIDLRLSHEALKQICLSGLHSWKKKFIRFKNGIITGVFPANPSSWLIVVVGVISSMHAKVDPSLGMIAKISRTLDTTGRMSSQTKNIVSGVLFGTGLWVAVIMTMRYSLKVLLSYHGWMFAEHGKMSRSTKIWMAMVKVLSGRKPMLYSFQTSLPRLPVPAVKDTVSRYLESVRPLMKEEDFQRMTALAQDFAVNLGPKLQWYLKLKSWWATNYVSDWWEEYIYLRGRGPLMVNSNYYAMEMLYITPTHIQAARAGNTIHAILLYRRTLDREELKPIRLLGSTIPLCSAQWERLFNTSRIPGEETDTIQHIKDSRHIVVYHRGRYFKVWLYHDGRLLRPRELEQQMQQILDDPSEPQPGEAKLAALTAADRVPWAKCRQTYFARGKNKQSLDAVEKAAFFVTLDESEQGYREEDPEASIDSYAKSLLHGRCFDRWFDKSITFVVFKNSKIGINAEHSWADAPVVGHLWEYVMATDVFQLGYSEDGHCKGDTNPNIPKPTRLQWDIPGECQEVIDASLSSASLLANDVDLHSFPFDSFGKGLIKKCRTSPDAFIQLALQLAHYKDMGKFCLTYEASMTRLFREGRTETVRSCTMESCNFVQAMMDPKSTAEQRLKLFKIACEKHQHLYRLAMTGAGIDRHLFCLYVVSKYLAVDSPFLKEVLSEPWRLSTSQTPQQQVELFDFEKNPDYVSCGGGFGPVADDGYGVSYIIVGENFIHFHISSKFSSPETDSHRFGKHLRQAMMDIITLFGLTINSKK

[5] = biological target: T5, Carnitine O-palmitoyltransferase 1, muscle isoform (Homo sapiens, UniProt Q92523); assay: SUPPLEMENTARY: Inhibition of Carnitine palmitoyltransferase 1, muscle isoform; set-up: species or system Muscle tissue
T5 sequence (Q92523 whole entry): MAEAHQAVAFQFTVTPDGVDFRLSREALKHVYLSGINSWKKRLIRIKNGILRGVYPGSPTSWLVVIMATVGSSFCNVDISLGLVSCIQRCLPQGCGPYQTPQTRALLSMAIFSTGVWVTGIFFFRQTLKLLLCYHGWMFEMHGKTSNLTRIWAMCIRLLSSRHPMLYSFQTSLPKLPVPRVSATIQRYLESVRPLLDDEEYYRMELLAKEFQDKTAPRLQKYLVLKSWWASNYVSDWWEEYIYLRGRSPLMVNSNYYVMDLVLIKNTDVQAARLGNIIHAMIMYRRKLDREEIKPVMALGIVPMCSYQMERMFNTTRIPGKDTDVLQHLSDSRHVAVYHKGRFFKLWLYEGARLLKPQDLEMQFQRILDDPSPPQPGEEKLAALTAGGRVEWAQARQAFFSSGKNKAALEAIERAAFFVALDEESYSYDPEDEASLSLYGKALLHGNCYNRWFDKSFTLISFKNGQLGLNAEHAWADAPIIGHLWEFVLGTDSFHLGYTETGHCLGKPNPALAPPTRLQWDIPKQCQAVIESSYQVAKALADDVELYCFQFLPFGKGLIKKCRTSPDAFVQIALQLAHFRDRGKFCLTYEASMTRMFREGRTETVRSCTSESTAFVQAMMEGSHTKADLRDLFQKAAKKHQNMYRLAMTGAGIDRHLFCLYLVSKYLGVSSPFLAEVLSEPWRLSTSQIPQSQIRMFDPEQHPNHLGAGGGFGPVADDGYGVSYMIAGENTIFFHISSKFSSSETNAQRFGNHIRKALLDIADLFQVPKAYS

[6] = SUPPLEMENTARY: PAMPA permeability assay; assay type: physicochemical; conditions: read-out: Permeability
[7] = SUPPLEMENTARY: Lipophilicity (log D) Determination by high-throughput shake-flask; assay type: physicochemical; conditions: octanol/water
[8] = SUPPLEMENTARY: Lyophilisation Solubility Assay (LYSA); assay type: physicochemical; conditions: read-out: Kinetic_solubility

Compound	IC50 [1]	IC50 [2]	IC50 [3]	IC50 [4]	IC50 [5]	Papp [6]	logD [7]	solubility kinetic [8]
CCOC(=O)C1CN(S(=O)(=O)c2cc(Cl)ccc2OC)c2cc(C(=O)Nc3cccc(F)c3)ccc2O1 (stereo not given)	> 100000 nM	> 100000 nM	221 nM	339 nM	> 100000 nM	1.31 ×10⁻⁶ cm/s	3.58	< 1 µg/mL
Cc1cc(C)cc(S(=O)(=O)c2nn(C)c3ccc(C(=O)Nc4ccc(C(=O)O)cc4)cc23)c1	10000 nM	2460 nM	74.9 nM	27.2 nM	2570 nM	0.76 ×10⁻⁶ cm/s	2.21	14 µg/mL (≈ 30.2 µM)
CCOC(=O)c1cncc(-c2noc([C@H]3CCCCN3C(=O)COc3ccccc3)n2)c1	> 100000 nM	24300 nM	78.6 nM	399 nM	> 100000 nM	1.56 ×10⁻⁶ cm/s	3.38	9 µg/mL (≈ 20.6 µM)
O=C1COc2ccc(-c3noc([C@H]4CCCCN4C(=O)COc4ccccc4)n3)cc2N1	> 100000 nM	18000 nM	55.7 nM	69.4 nM	80800 nM	3.91 ×10⁻⁶ cm/s	3.04	10 µg/mL (≈ 23 µM)
CCOC(=O)c1cn2ccc(-c3noc([C@H]4CCCCN4C(=O)COc4ccccc4)n3)cc2n1	> 100000 nM	> 100000 nM	68.1 nM	459 nM	> 100000 nM	1.99 ×10⁻⁶ cm/s	2.92	22 µg/mL (≈ 46.3 µM)
O=C(O)c1ccc(NC(=O)c2ccc3c(c2)N(S(=O)(=O)c2cccc(Cl)c2)CCS3)cc1	5640 nM	1950 nM	82.2 nM	43 nM	7330 nM	2.81 ×10⁻⁶ cm/s	1.48	20 µg/mL (≈ 40.9 µM)
Cn1cnc(Br)c1-c1noc([C@H]2CCCCN2C(=O)COc2ccccc2)n1	> 100000 nM	40500 nM	79.3 nM	250 nM	> 100000 nM	5.6 ×10⁻⁶ cm/s	2.68	83 µg/mL (≈ 186 µM)
Cc1cc(C(=O)Nc2ccc(C(=O)O)cc2)cc(S(=O)(=O)Nc2cccc(C(F)(F)F)c2)c1C	1350 nM	1820 nM	122 nM	568 nM	30200 nM	0.841 ×10⁻⁶ cm/s	1.62	310 µg/mL (≈ 629 µM)
O=C(COc1ccccc1)N1CCCC[C@@H]1c1noc(-c2cccc(-n3cn[nH]c3=O)c2)n1	> 100000 nM	12000 nM	59.1 nM	334 nM	> 100000 nM	3.47 ×10⁻⁶ cm/s	2.35	48 µg/mL (≈ 108 µM)
COc1ccc(Cl)cc1S(=O)(=O)N1CCSc2ccc(C(=O)Nc3nc(CC(=O)O)cs3)cc21	> 100000 nM	> 100000 nM	11.6 nM	20.4 nM	992 nM	3.65 ×10⁻⁶ cm/s	0.39	5 µg/mL (≈ 9.26 µM)
